US20160310434A1, “GASTRO-RETENTIVE ORAL PHARMACEUTICAL COMPOSITIONS” (ETHYPHARM, priority 2013, published 2016)

Key:
Assay type in all cases: physicochemical
[1] = Log P of baclofen
Description: (§1) Baclofen (below) is a BCS class III molecule.
At usual therapeutic doses, baclofen is known to have good oral bioavailability. However, its low log P indicates some hydrophilicity and thus low permeability. This observation is explained by the presence of specific transporters at the small intestine allowing the molecule to pass. This is even greater at the jejunum. […] This region of the digestive system contains no transporters but since the molecule is hydrophilic and of small size, weak passive transport through the tight junctions is possible. It thus appears that when a higher plasma concentration of baclofen is required, the taking of a higher dose is not effective due to saturation of the transporters. The clinical solution is thus to take small doses at shorter time intervals, which can quickly become burdensome for the patient.

[2] = Solubilities of baclofen
Description: as §1

[3] = pKa of baclofen
Description: as §1

[4] = pH of a saturated solution of baclofen
Description: as §1

NCC(CC(=O)O)c1ccc(Cl)cc1 (stereo not drawn) [baclofen, Baclofen]
Log P [1]: −1
Solubility ([2]; 0.1N HCl): Soluble: 0.1N HCl, 0.1N NaOH
Solubility ([2]; 0.1N NaOH): Soluble: 0.1N HCl, 0.1N NaOH
Solubility ([2]; ethanol): Very slightly soluble: ethanol, methanol
Solubility ([2]; methanol): Very slightly soluble: ethanol, methanol
Solubility ([2]; water): Slightly soluble: water (3 mg/ml)
pKa1 [3]: pKa1 = 3.87
pKa2 [3]: pKa2 = 9.62
pH of a saturated solution [4]: 6.5
